Holding throughout (format): cell-based, Rat
The test system of one test is ROS in cortical neurons. As to the kind of experiment: ROS imaging by oxidized DCDHF-DA (DCF) and hydroethidine fluorescence. The method, then: Cortical cell cultures (DIV 12-15) grown on glass bottom dishes were loaded with 10 μM dichlorodihydro fluorescein diacetate (DCDHF-DA) or 5 μM hydroethidium (Molecular Probes, Eugene, Oreg.) plus 2% Pluronic F-127 in HEPES-buffered control salt solution (HCSS) buffer containing (in mM): 120 NaCl, 5 KCl, 1.6 MgCl2, 2.3 CaCl2, 15 glucose, 20 HEPES, and 10 NaOH. Cultures were incubated for 20 min at 37° C., and washed three times with HCSS buffer. […] The fluorescence images were analyzed using a QuantiCell 700 system (Applied imaging, UK).
Superoxide production through activation of NADPH oxidase was analyzed by measuring the oxidation of HEt and DCDHF to ethidium and DCF, respectively, in cortical neurons after exposure to a sham operation, 100 ng/ml BDNF, or 100 ng/ml BDNF plus 3 nM DPI for 32 hr (FIG. 15).

Test [1] concerns NADPH oxidase (p22-phox, gp91-phox, p47-phox) mRNA. As to the kind of experiment: RT-PCR of NADPH oxidase subunit mRNA. The method, then: RT-PCR experiments were performed to confirm the BDNF-sensitive genes derived from cDNA expression microarray, cytochrome b558 as it constitutes p22-phox and gp91-phox subunits of NADPH oxidase, a pro-oxidant enzyme generating superoxide from oxygen.
Total RNA (1 μg each) was incubated in a reaction mixture containing dNTP (2.5 mM each), RNasin (0.5 Unit), oligo dT primer (100 ng), and MMLV reverse transcriptase (200 Unit) at 37° C. for 1 hr. The samples were incubated at 92° C. for 10 min and transferred to 4° C. The reverse transcribed cDNA was subjected to PCR amplification. PCR was performed according to manufacturer's procedure (Takara Shuzo Co., Japan) sequentially (denaturation-annealing-extension) at following conditions: for p47-phox, 94° C. for 30 S, 55° C. for 30 S, and 72° C. for 60 S (28 cycles); for p22-phox (homologous to cytochrome b558 in microarray) and gp91-phox, 94° C. for 45 S, 60° C. for 60 S, and 72° C. for 120 S (33 cycles); for GAPDH, 94° C. for 35 S, 55° C. for 45 S, and 72° C. for 90 S (25 cycles). Primer sequences used were as follows (5′-3′): for p22-phox, […] (forward) and […] (reverse); for p47-phox, CAGCCA […] (forward) and […] (reverse); for gp91-phox, […] TG (forward) and […] (reverse); for GAPDH, […] (forward) and […] (reverse). PCR products were run on a 1.2% agarose gel and visualized with ethidium bromide. The relative amount of mRNA was measured using LAS-1000 systems (Fuji Photofilm Co., Japan), normalized to levels of GAPDH mRNA. DNA sequencing was performed with Big Dye Terminator Chemistry from Perkin-Elmer Applied Biosystems on ABI PRISM™ 377 DNA sequencer (Foster City, Calif.)

In test [2] the test system is NADPH oxidase subunits gp91-phox, p47-phox, p67-phox. As to the kind of experiment: Western blot of NADPH oxidase subunits. The conditions noted are these: over 16-32 hr exposure. The method, then: Western blot experiments were performed to analyze protein levels of NADPH oxidase subunits using available antibodies for gp91-phox, p47-phox, and p67-phox.
Cortical cell cultures were lysed in a lysis buffer containing 50 mM Tris-HCl (pH 7.5), 1% Nonidet P-40, 150 mM NaCl, 0.5% deoxycholic acid, 0.1% sodium dodecyl sulfate (SDS), 1 mM PMSF (phenylmethylsulfonyl fluoride), 10 μg/ml pepstain A, and 100 μg/ml leupeptin. Cell lysates were centrifuged at 12,000 g for 10 min. approximately 25 μg of protein was subjected to electrophoresis on 12% SDS-polyacrylamide gel and transferred to a nitrocellulose membrane. The blot was incubated in 2.5% bovine serum albumin for 1 hr, incubated with goat polyclonal primary antibodies, anti-gp91-phox, anti-p67-phox, or anti-p47-phox antibodies (1:1000, Santa Cruz, Santa Cruz, Calif.), and then reacted with a biotinylated anti-goat secondary antibody. Immunoreactivity was detected with Vectastain ABC kit (Vector Laboratory, Burlingame, Calif., USA) and luminol for enhanced chemiluminescence Intron, Korea). The signal was analyzed by quantitative densitometry using LAS-1000 systems (Fuji Photofilm Co., Japan).

For test [3], the system named is p47-phox and p67-phox in cortical cell cultures. In words: Immunocytochemistry of p47-phox and p67-phox. To be noted: 32 hr following exposure. The method, then:
Immunocytochemistry was performed to identify which types of cells express NADPH oxidase in cortical cell cultures containing neurons and glia.
Cortical cell cultures (DIV 12-14) grown on glass bottom dishes were fixed in 4% paraformaldehyde for 30 min, incubated in 10% horse serum for 1 hr, and double-immunolabeled with a mouse monoclonal antibody against NeuN (1:400 dilution, Chemicon, Temecula, Calif.) and a goat polyclonal antibody against p47-phox or p67-phox (1:200 dilution, Santa Cruz, Santa Cruz, Calif.) for 2-4 hr. Cultures were then reacted with fluorescein isothiocyanate-conjugated anti-goat IgG (1:200 dilution, Organon Teknika Corp., NC) and Texas red-conjugated anti-mouse IgG (1:200, Vector Laboratory, Burlingame, Calif.) for 1-2 hr. The fluorescence images were collected and analyzed with a fluorescence microscopy (Zeiss, Germany) equipped with the Real-14™ precision digital camera (Apogee Instrument, Tucson, Ariz.) and ImagePro Plus Plug-in (Silver Spring, Md.).

Test [4] concerns NADPH oxidase activation (p47-phox, p67-phox). In words: Subcellular fractionation and western blot, translocation of p47-phox and p67-phox. The conditions noted are these: exposed for 16-32 hr. The method, then: Activation of NADPH oxidase involves translocation of the cytosolic p47-phox and p67-phox subunits into the plasma membrane (Clark et al., 1989, Trans. Assoc. Am. Physicians., 102, 224-230). We examined if treatment with BDNF would activate NADPH oxidase through isolating the cytosol and membrane fraction.
Cortical cell cultures were washed with ice-cold PBS and resuspended in an isotonic buffer containing 10 mM HEPES, pH 8.0, 250 mM sucrose, 1 mM EDTA, 1 mM EGTA, 1 mM dithiothreitol (DTT), 2 mM PMSF, 100 μg/ml leupeptin, and 10 μg/ml pepstatin A. For isolating the cytosol and membrane fraction, the lysate was homogenized with a homogenizer (KONTE, Vieland, N.J.), centrifuged at 9,000 g for 10 min, and the supernatant was then centrifuged at 100,000 g for 1 hr.
The membrane fraction was obtained by resuspending the pellet with 50 μl lysis buffer and the cytosolic fraction was obtained from the supernatant. As shown in <EXAMPLE 7-4>, western blot experiments were performed to analyze protein levels of NADPH oxidase subunits using available antibodies for gp91-phox, p47-phox, and p67-phox.

Test [5] has as its system Neuron-rich cortical cell cultures. As to the kind of experiment: Serum deprivation-induced neuronal apoptosis, counting viable neurons. The method, then:
For neuron-glia mixed cultures, 10 μM cytosine arabinoside (Ara C) was included to stop the overgrowth of non-neuronal cells to cultures at DIV 5-7 when glial cells were confluent underneath neurons. After 2 days, cultures were then fed with plating medium lacking fetal serum twice a week. Cultures were maintained at 37° C. in a humidified 5% CO2 incubator. For neuron-rich cultures (>95%), 2.5 μM Ara C was included to cultures at 2-3 days in vitro (DIV 2-3) as previously described (Gwag et al., 1997).
Mixed cortical cell cultures (DIV 12-14) were rinsed in serum free MS (MEM supplemented with 26.5 mM sodium bicarbonate and 21 mM glucose) and then exposed to various concentrations of NGF, BDNF or NT-3 in serum free MS. Neuronal cell death was analyzed by measuring the level of lactate dehydrogenase (LDH) released into the bathing medium. The percent neuronal death was normalized to the mean LDH value released after a sham control (defined as 0%) or continuous exposure to 500 μM NMDA for 24 hr (defined as 100%) The latter produces complete neuronal death within 24 hr. For experiments for serum deprivation, neuron-rich cortical cell cultures (DIV 7) were placed into serum free MS containing 1 μM MK-801 as described (Gwag et al., 1995). Neuronal death was analyzed 24 and 48 hr later by counting viable neurons excluding Trypan Blue satained.
Neuron-rich cortical cell cultures (DIV 7) were deprived of serum, alone (serum deprivation) or in the presence of 100 ng/ml BDNF, 100 ng/ml BDNF plus 3 nM DPI, 3 nM DPI, 100 ng/ml BDNF plus 100 μM trolox, or 100 μM trolox. Neuronal death was assessed 24 hr and 48 hr later by counting viable neurons.

For “BDNF: brain-derived neurotrophic factor, a neurotrophin”, in the test on ROS in cortical neurons (100 ng/ml BDNF for 32 hr), the “Oxidation of HEt and DCDHF” value is on record as “increased oxidation”. Moreover, the “Fluorescent intensity of DCF in cortical neurons” value in the test with ROS in cortical neurons (exposed for 16 hr) was “increased”. Also, the “Intraneuronal levels of ROS ([ROS]i)” value in the test with ROS in cortical neurons (over 24-32 hr) is reported as “further increased”. The “mRNA levels of p22-phox and gp91-phox” value was “maximally increased” in test [1] (4 hr later, lasted over the next 12 hr) and “increase” in test [1] (within 2 hr after treatment). The “mRNA levels of p47-phox subunit” value in test [1] (from 30 min following administration) is “increased gradually”. Moreover, the “Protein levels of NADPH oxidase subunits gp91-phox, p47-phox, and p67-phox” value in test [2] is “increased”. In addition, the “Signals of p47-phox and p67-phox (immunoreactivity)” value in test [3] is recorded as “increased exclusively in neurons”. For the same substance, the “Levels of p47-phox and p67-phox in cytosolic and membrane fraction” value in test [4] is “reduced in the cytosolic fraction and increased in the membrane fraction”. Moreover, the “Protective effects of BDNF following serum deprivation” value in test [5] (100 ng/ml, within 48 hrs) is given as “disappeared”. Also, the Neuronal apoptosis result in test [5] (serum deprivation, 100 ng/ml BDNF) is listed as “prevented neuronal apoptosis”.

The values above are taken from patent US7608585B2, “Compositions for inhibition of necrosis induced by a neurotrophin” (Neurotech Pharmaceuticals Co., Ltd., priority 2004, dated 2009).
